The record followed here is patent EP0792647A1, “Porphyrins as urokinase-type plasminogen activator receptor antagonists” (BOEHRINGER MANNHEIM GMBH, priority 1996, dated 1997).

Where a name gives a salt, the structure may show the parent alone. Read-outs that look alike come from different tables or passages of the source.

Assay [1] addresses T1, human urokinase (uPA) binding to its specific receptor (uPAR) (Homo sapiens, UniProt Q03405). Put plainly: ELISA-Test: inhibition of uPA binding to its specific receptor (uPAR).
For assay [2], the target named is T1, human urokinase (uPA) binding to its specific receptor (uPAR). The description is as above. The note with it: synthetic or commercially available porphyrins; for IC50: read-out: IC50 (µg/ml) ELISA (converted). The protocol: This test is described by P. Rettenerger et al. in Biol. Chem. Hoppe-Seyler 376, pp. 587-594 (1995). An alternate ELISA-test is described in Behrendt et al., Meth. Enzymol. 233 (1993), 207-222. • ELISA-Test: Inhibition of human urokinase (uPA) binding to its specific receptor (uPAR). The assays are performed in Microtiterplates (96 wells). The following solutions are used: • washing buffer: PBS-buffer (w/o Mg^2+Ca^2+) + 0,05% Tween 20; uPAR-solution 100 ng/ml (10 ng/well) • blocking solution 2% skimmed milk powder (Merck) in washing buffer • incubation buffer 0.5% skimmed milk powder in PBS uPA-solution 10 ng/well detection solutions (per microfilter plate): • (1) 6 ml (100 mM Tris-CI pH 7.5 + 0.15% Tween 80) + 1.5 ml (10 µg) Plasminogen in aqua bidest. • (2) 6 ml (100 mM Tris-CI pH 7.5 + 0.15% Tween 80) + 1.5 ml (7.5 mg) Chromozyme PL in aqua bidest.
The detection solution must be continously stirred.
Testing substances: the testing substances are solved in DMSO. They are used in the test system with a highest concentration of 100 µg/ml. Dissolutions are prepared using PBS.
Three controlls are performed: • a) positive controll: using 2% DMSO in PBS • b) negative controll: assay w/o receptor • c) inhibition controll: Inhibition (IC95 at 0.25 mg/ml) with Dextranesulfate (MW = 500.000)
Each well is incubated by 10 ng uPAR for 1 hour at roomtemperature (RT). After washing once each well is incubated for half an hour (37°C) with 200 µl/well blocking solution. After triple washing testing substance solution or controll solutions are added (50 µl/well and incubated for 15 min at RT. An additional 50 µl of uPA solution (10 ng in incubation buffer) are added. After 1 hour at RT a triple washing is performed.
Incubation 70 µl each of solution (1) and (2) at RT. After 20 min. a yellow color will be visible (the positive control reads an extinction of 1 after 40 min.). The detection is performed at […] (reference is […]) using a Dynatech MR 7000 ELISA reader.
To obtain the percentage of inhibition the following formula is used: % Inhibtion = 100-100* (Extinction (Test) - Extinction (Neg. contr.)/(Extinction (Pos. contr.) - Extinction (Neg. contr.)) [formula]

Assay [3] has as its target Urokinase (uPA not bound to uPAR) (Homo sapiens, UniProt P00749). Put plainly: ENZ: Urokinase-activity-assay (uPA not bound to uPAR). The class given is biochemical. To be noted: assay without uPAR; for IC50: read-out: IC50 (µg/ml) ENZ (converted). Here is the method: ENZ: Urokinase-activity-assay (uPA not bound to uPAR)
This assay is identical to the uPA/uPAR assay of example one except that no uPAR is used, i.e. no incubation of the wells with uPAR and the following washing steps is necessary.

Assay [4] addresses T2, NIH 3T3 cells transfected with a human urokinase receptor (Homo sapiens, UniProt Q03405).
T2 construct: expressed in transfected cells; host or cells: NIH 3T3 (clone NIH3T3 CH1 (15.10)), mouse fibroblasts
Put plainly: Cellular assay: uPA binding to NIH 3T3 cells transfected with a human urokinase receptor. The class given is cell-based.
Experimental: An enzyme test was used to detect inhibtion of urokinase activity and a cellular assay using NIH 3T3 (from ATCC) cells transfected with a human urokinase receptor was obtained.
Medium: • DMEM (MEM dulbecco/Boehringer) with NaHCO3 and 4.5 g/l Glucose
add: • 10% FCS (Seromed) • 2 mM L-Glutamine • 1 mM Na-Pyruvat • 100 U/ml Penicillin • 100 µg/ml Streptomycin • 1 µg/ml G 418 (Geneticin) • sterilize all supplements by filtration
Take a 1 mg/ml fibronectin solution (in sterile water) and dilute an appropriate aligot with sterile PBS to a final concentration of 50 µg/ml. Coat the 96-well plate with 200 µl//well. Incubate for about 45 min. at room temperature. Remove the solution carefully. The wells should not be allowed to dry, use immediately. Prepare the cells during the 45 min. of incubation with fibronectin. NIH3T3 CH1 (15.10)-cells are grown to confluency in T 175 cell-culture flasks in the above described medium. Remove the media and rinse the cells with PBS, add 2 ml of Trypsin / EDTA solution for cell detachment. Stop trypsin activity by addition of approx. 6 ml medium . Take an aliquot of the cells to determine the cellnumber and adjust the celldensity to 8 x 10^5/ml with medium. Take the fibronectin coated 96 well palate and spread 100 µl cell-suspension/well, let the cells grow to confluency over night.
Discard the medium carefully and wash the cells by addition of 200 µl medium (without supplements) / well and again discarding the medium. Add 200 µl 2% skimmed milk in medium. Incubate for 30 minutes at roomtemperatur. Wash twice with 200 µl medium (w supplements) / well carefully (to remove unbound skimmed milk). Preincubate with 50 µl testcompound diluted in medium, respectively medium only for the controls for 20 minutes; add 50 µl uPA-solution [200 ng/ml]. Incubate for 60 minutes at roomtemperature; wash carefully for 3 times with medium (200 µl/well). […] Measure at a wavelength of 405 nm (reference: 490 nm) with an ELISA-Reader. The yellow colour will appear after about 45 mins.

The mark [5] stands for this setting: NIH3T3 CH1 (15.10)-cells, read-out: IC50 (µg/ml) cells (converted).

T1 sequence (Q03405 23-305 limits assumed): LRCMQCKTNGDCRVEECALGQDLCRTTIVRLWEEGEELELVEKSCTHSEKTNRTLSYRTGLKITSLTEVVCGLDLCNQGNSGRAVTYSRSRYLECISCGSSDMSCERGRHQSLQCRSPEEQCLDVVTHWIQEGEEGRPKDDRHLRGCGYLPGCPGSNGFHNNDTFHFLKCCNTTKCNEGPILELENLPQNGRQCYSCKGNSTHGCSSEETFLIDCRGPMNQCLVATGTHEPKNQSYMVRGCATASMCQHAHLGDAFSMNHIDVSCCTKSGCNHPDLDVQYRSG
T2 sequence (Q03405 23-305 limits assumed): as above

Regarding `C=CC1=C(C)C(=Cc2[nH]c(Cc3[nH]c(C=C4NC(=O)C(C)=C4C=C)c(C)c3CCC(=O)O)c(CCC(=O)O)c2C)NC1=O` [Bilirubine], in assay [1], testing at 300 µg/mL gave an inhibition of 11%.
In the case of `C=Cc1c(C)c2cc3nc(c(CC(=O)O)c4[nH]c(cc5nc(cc1[nH]2)C(C)=C5CC)c(C)c4C(=O)O)[C@@H](CCC(=O)O)[C@@H]3C` [Chlorin e6], the IC50 is 0.52 µM in assay [2], 2.35 µM in assay [3] and 12.9 µM in assay [4] (setting [5]).
For `CCOC(=O)CCC1=C(C)c2cc3[nH]c(cc4nc(cc5[nH]c(cc1n2)c(C)c5CCC(=O)OCC)C(CCC(=O)OCC)=C4C)c(C)c3CCC(=O)OCC` [Coproporphyrin III tetraethylester] the same measures were 0.678 µM, 95.2 µM and 124 µM.
For the compound `COC(=O)CCC1=C(C)c2cc3[nH]c(cc4nc(cc5[nH]c(cc1n2)c(CCC(=O)OC)c5C)C(S(=O)(=O)O)=C4C)c(S(=O)(=O)O)c3C` [Deuteroporphyrin IX 2,4 Disulfonic Acid dimethylester], the IC50 in assay [2] was 1.82 µM; in assay [3], 3.51 µM.
Take `CC1=C(CCC(=O)O)c2cc3[nH]c(cc4nc(cc5[nH]c(cc1n2)c(C)c5C(O)CO)C(C)=C4C(O)CO)c(C)c3CCC(=O)O` (centres unmarked) [Deuteroporphyrin IX 2,4-Bis Glycol]: the IC50 was 8.4 µM in assay [2] and 4.28 µM in assay [3].
As for `CCC1=C(C)c2cc3[nH]c(cc4nc(cc5[nH]c(cc1n2)c(C)c5CCC(=O)O)C(CCC(=O)O)=C4C)c(C)c3CC` [Mesoporphyrin IX Dihydrochloride], the values for the IC50 in assay [2], in assay [3] and in assay [4] were 0.406 µM, 2.12 µM and 2.77 µM, respectively.
As to `O=C(O)c1ccc(-c2c3nc(c(-c4ccc(C(=O)O)cc4)c4ccc([nH]4)c(-c4ccc(C(=O)O)cc4)c4nc(c(-c5ccc(C(=O)O)cc5)c5ccc2[nH]5)C=C4)C=C3)cc1` [meso-tetra-(4-Carboxyphenyl)-Porphine], the values for the IC50 in assay [2], in assay [3] and in assay [4] (setting [5]) were 0.266 µM, 0.86 µM and 30.6 µM, respectively.
Consider `O=S(=O)(O)c1ccc(-c2c3nc(c(-c4ccc(S(=O)(=O)O)cc4)c4ccc([nH]4)c(-c4ccc(S(=O)(=O)O)cc4)c4nc(c(-c5ccc(S(=O)(=O)O)cc5)c5ccc2[nH]5)C=C4)C=C3)cc1` [meso-tetra-(4-Sulfonatophenyl)-Porphine Dihydrochlorid], for which the IC50 was 0.214 µM in assay [2]; 0.674 µM in assay [3]; 21.3 µM in assay [4] (read-out: IC50 (µg/ml) cells, NIH3T3 CH1 (15.10)-cells).
For the compound Al Phtalocyanine Tetrasulfonate, the “IC50 (µg/ml) ELISA” value in assay [2] is reported as 3,7 µg/ml. Moreover, the “IC50 (µg/ml) ENZ” value in assay [3] is 2,3 µg/ml.
In the case of Hematoporphyrin D, in assay [2], the “IC50 (µg/ml) ELISA” value was 0,52 µg/ml. Besides, in assay [3], the “IC50 (µg/ml) ENZ” value is 3,1 µg/ml. Further, the “IC50 (µg/ml) cells” value in assay [4] (NIH3T3 CH1 (15.10)-cells) was 1,4 µg/ml.
Turning to N-Methyl Protoporphyrin IX, in assay [2], the “IC50 (µg/ml) ELISA” value is 0,4 µg/ml.
